Experimental data published in patent US20080213810A1, “Screening Method for Hiv Rt Inhibitors” (priority 2005, published 2008).

Target: HIV RT (Human immunodeficiency virus type 1 group M subtype B, UniProt P04585)
Experiment: Enzyme kinetics studies (1/v versus 1/[dTTP])
Type: biochemical
Details: 40-3 μM dTTP, 2-0 μM compound 1, poly(rA)oligo(dT); lines cross at the Y-axis intercept
Protocol: The enzyme kinetics studies were carried out using a protocol involving a 4×5 matrix of varying substrate and inhibitor concentrations over ranges of 40-3 μM of dTTP and 2-0 μM of compound 1.
The reaction mixtures (50 μl) further contained 50 mM Tris.HCl (pH 7.8), 5 mM dithiothreitol, […], 500 μM EDTA, 150 mM KCl, 5 mM MgCl2, 0.15 mM of the template/primer poly(rA)oligo(dT) and 0.06% Triton X-100. The reaction mixtures were incubated at 37° C. for 15 min, at which time 100 μl of calf thymus DNA ([…]), 2 ml of Na4P207 (0.1 M in 1 M HCl), and 2 ml of trichloroacetic acid (10% v/v) were added. The solutions were kept on ice for 30 min, after which the acid-insoluble material was washed and analyzed for radioactivity. When the reciprocal of the reaction velocity (1/v) is plotted against the reciprocal of the substrate concentration (1/[dTTP]) in the presence of different concentrations of compound 1, the graph (See FIG. 1) is obtained.
Since all the lines cross at the intercept with the Y-axis it is clear that this compound has a competitive mode of HIV RT inhibition.

Cn1c2ccccc2c2c1cc(C#N)c(=O)n2-c1ccc([N+](=O)[O-])cc1 [Compound 1]
mode of HIV RT inhibition: competitive
